The values below come from patent publication US9974305B2, “Fungicidal or bactericidal composition, and method for controlling diseases” (NISSAN CHEMICAL INDUSTRIES, LTD., priority 2014, dated 2018).

Each structure is given as a SMILES string.

For series [1], the system named is cucumber gray mold fungus (Botrytis cinerea). Kind of series: Preventive test against gray mold on cucumber cotyledon leaves, spray treatment, preventive value and Colby expected value (Test Examples 1-4). The format is in vivo. To be noted: single compound. Here is the method: Using the following compound listed in Table 2 (the active ingredient A) and the compound listed in Table 5 through Table 15 (active ingredient B), an agent was prepared in accordance with the above Formulation Example. This agent was diluted with water to a predetermined concentration to obtain a test solution. Then, cucumber (variety: Sagami-hanjiro) was planted in a plastic pot of 90 cm^3, and in the cotyledon stage, 5 ml of the obtained test solution, was sprayed by a spray gun and air-dried. Thereafter, the treated leaf was cut off and placed in a plastic container which filled approximately 0.5 cm in depth water. A suspension of conidia of cucumber gray mold fungus (Botrytis cinerea) and a dissolved PDA culture medium were mixed at a ratio of 1:1 (mass ratio), and the mixture was dropped to inoculate the treated leaf with 30 μl. After the inoculation, the plastic container was sealed and left at 20° C. for 3 days, the ratio of the formed lesion occupying the inoculated leaf was measured, and the preventive value was calculated in accordance with the following calculation formula. Preventive value=[1−(treated plot lesion area ratio/untreated plot lesion area ratio)]×100
Further, from the preventive value at each agent concentration, synergy was calculated by using the Colby method (Colby S. R. 1976, Weeds 15, 20-22). The calculation method is as follows. E=X+Y−XY/100
X: preventive value of A agent at x concentration
Y: preventive value of B agent at y concentration
E: theoretical value expected by treatment of the mixture of A agent and B agent.
The obtained result is analyzed to be synergy if the observed value is larger than the expected value, to be antagonism if the expected value is larger than the observed value, and to be an additive effect if the observed value and the expected value are the same.
Using the following compound listed in Table 2 (active ingredient A) and the following compound listed in Table 5 through Table 15 (active ingredient B) as active ingredients, a preventive test against gray mold was conducted in accordance with the method described in Test Example 1.
Using the following compound listed in Table 2 (active ingredient A) and the following compound listed in Table 5 or Table 6 (active ingredient B) as active ingredients, a preventive test against gray mold was conducted in accordance with the method described in Test Example 1.
Using the following compound listed in Table 2 (active ingredient A) and the following compound listed in Table 6 through Table 16 (active ingredient B) as active ingredients, a preventive test against gray mold was conducted in accordance with the method described in Test Example 1.

Series [2] deals with rice sheath blight fungus (Rhizoctonia solani). Kind of series: Efficacy test on rice sheath blight, spray treatment and prevention test (Test Examples 5-6). The series is classed as in vivo. As to conditions: single compound 250 ppm, lesion height. As to the method: An agent comprising the following compound listed in Table 2 (active ingredient A) and the compound listed in Table 6 (C17: active ingredient B) as active ingredients, was prepared in accordance with the above Formulation Example. The agent was diluted with water to a predetermined concentration to obtain a test solution. Then, in a plastic pot of 90 cm^3, rice (Nipponbare) was seeded by 5 grains in one place, and to the grown seedlings in 4 seedling phase, the test solution was applied by a spray gun in an amount of 5 ml per pot, for treatment.
One day after the treatment, 1 g of mycelium flora of rice sheath blight fungus (Rhizoctonia solani) cultured in bran medium, was put by […] to a close-to-ground part of seedlings, and the pot was placed in a moist chamber set in temperature of 25° C. and humidity more than 95% RH for eight days. The height of the lesions which appeared in the highest position from the close-to-ground part (lesion height) was investigated, and the preventive value was calculated in accordance with the following formula. Preventive value=[1−(treated plot lesion height/untreated plot lesion height)]×100
(§1) Further, from the preventive value for each agent concentration, synergy was calculated by using the Colby method (Colby S. R. 1976, Weeds 15, 20-22).
Using the following compound listed in Table 2 (active ingredient A) and the compound listed in Table 6 (C17: active ingredient B) as active ingredients, a preventive test on rice sheath blight was conducted in accordance with the above Test Example 5.

For series [3], the system named is cucumber downy mildew (Pseudoperenospora cubensis). Kind of series: Efficacy test on cucumber downy mildew, spray treatment and prevention test (Test Example 7). The format is in vivo. To be noted: single compound 250 ppm; lesion area ratio. Here is the method:
An agent comprising the following compound listed in Table 2 (active ingredient A) and the compound listed in Table 6 (C40: active ingredient B) as active ingredients, was prepared in accordance with the above Formulation Example. This agent was diluted with water to a predetermined concentration to obtain a test solution. Then, to seedlings of cucumber (variety: Sagami-hanjiro) at 1.5-leaf stage grown in a pot with a diameter of 7 cm, the test solution was applied by a spray gun in an amount of 10 ml per pot, for treatment. One day after the treatment, a spore suspension (2×100,000 cfu/ml) of cucumber downy mildew (Pseudoperenospora cubensis), was spray-inoculated, and the pot was placed in a moist chamber set in temperature of 20° C. and humidity more than 95% RH for 24 hours. After placing the pot in a glass greenhouse for 6 days, the ratio of the formed lesion area occupying the inoculated leaves was measured, and the preventive value was calculated in accordance with the following formula. Preventive value=[1−(treated plot lesion area ratio/untreated plot lesion area ratio)]×100
as §1

Series [4] relates to wheat glume blotch (Leptosphaeria nodorum). Kind of series: Efficacy test on wheat glume blotch, spray treatment and prevention test (Test Example 8). To be noted: spray, lesion area ratio. The format is in vivo. Here is the method: An agent comprising the following compound listed in Table 2 (active ingredient A) and the following compound listed in Table 6, Table 11 or Table 15 (active ingredient B) as active ingredients, was prepared in accordance with the above Formulation Example. This agent was diluted with water to a predetermined concentration to obtain a test solution. Then, to seedlings of wheat (variety: Haruyutaka) at the 1-leaf stage, seeded in a pot with a diameter of 7 cm, with 5 seeds per pot, and grown for 7 days, the test solution was applied by a spray gun in an amount of 5 ml per pot, for treatment. One day after the treatment, a spore suspension (1×100,000 cfu/ml) of wheat glume blotch (Leptosphaeria nodorum) was spray-inoculated, and the pot was placed in a moist chamber set in temperature of 20° C. and humidity more than 95% RH for 48 hours. After placing the pot in a glass greenhouse for 7 days, the ratio of the formed lesion area occupying the inoculated leaves was measured, and the preventive value was calculated in accordance with the following formula. Preventive value=[1−(treated plot lesion area ratio/untreated plot lesion area ratio)]×100
as §1

Series [5] concerns wheat powdery mildew (Blumeria graminis). Kind of series: Efficacy test on wheat powdery mildew, seed treatment (Test Example 10). The series is classed as in vivo. To be noted: wheat (Norin 61). Here is the method: An agent comprising the following compound listed in Table 2 (active ingredient A) and the compound listed in Table 11 (H35: active ingredient B) as active ingredients, was prepared in accordance with the above Formulation Example. This agent was diluted with water to a predetermined concentration to obtain a test solution. A predetermined amount of test solution was put in a glass bottle of 5 ml, and 0.5 g (approximately 15 grains) of wheat seeds (variety: Norin 61) were added, stirred and air-dried. In each pot with a diameter of 7 cm and having soil put therein, 3 grains were seeded and grown for 14 days. To the wheat seedlings grown to the 1-leaf stage, a spore suspension (100,000 cfu/ml) of wheat powdery mildew (Blumeria graminis) was spray-inoculated. After placing the pot in a glass greenhouse for 10 days, the ratio of the formed lesion area occupying the inoculated leaves was measured, and the preventive value was calculated in accordance with the following formula. Preventive value=[1−(treated plot lesion area ratio/untreated plot lesion area ratio)]×100
(§2) Further, from the preventive value at each agent concentration, synergy was calculated by using the Colby method (Colby S. R. 1976, Weeds 15, 20-22).

In series [6] the test system is cucumber powdery mildew (Sphaerotheca cucurbitae). Kind of series: Efficacy test on cucumber powdery mildew, irrigation treatment (Test Example 11). The format is in vivo. To be noted: cucumber (Sagami-hanjiro). As to the method: An agent comprising the following compound listed in Table 2 (active ingredient A) and the compound listed in Table 6 (C18: active ingredient B), was prepared in accordance with the above Formulation Example. This agent was diluted with water to a predetermined concentration to obtain a test solution. 5 ml of the test solution was irrigated by a pipette to the close-to-ground part of cucumber seedlings at the 1 leaf stage (variety: Sagami-hanjiro), grown in a styrol cup with a diameter of 10 cm, and next day, the seedlings were transplanted to the to 4 cun pots. Then, after cultivation for 7 days in a glass greenhouse, to the first true leaf of the cucumber, a spore suspension (100,000 cfu/ml) of cucumber powdery mildew (Sphaerotheca cucurbitae) was inoculated by spraying. After 10 days in a glass greenhouse, the ratio of the formed lesion area occupying the inoculated leaves was measured, and the preventive value was calculated in accordance with the following formula. Preventive value=[1−(treated plot lesion area ratio/untreated plot lesion area ratio)]×100
as §2

[7] abbreviates: processing amount 5 mg/1 g seed.
[8] abbreviates: processing amount 10 mg/1 g seed.

`CCC(C)ON=C(CNC(=O)c1cn(C)nc1C(F)F)c1ncc(C#CC2CC2)cc1Cl` (mixture of isomers) [Compound No. 27]: the Preventive value in series [1] (Test Example 2, 3 ppm spray) is 50; in series [1] (Test Example 3, 3 ppm spray), 55; in series [1] (Test Example 4, 3 ppm spray), 45; in series [2] (Test Example 6) it was 8; in series [3], 0; in series [4] (single compound 3 ppm), 75. Also, the Preventive value in series [4] (single compound 10 ppm) amounted to 85; in series [5] (setting [7]) it was 85; in series [5] (setting [8]), 90; in series [6] (concentration 500 ppm), 60.

Consider `CO/N=C(/CNC(=O)c1ccccc1C(F)(F)F)c1ncc(Cl)c(OC)c1Cl` [Compound No. 8, (Z)—N-[2-[3,5-dichloro-4-(methoxy)pyridin-2-yl]-2-(methoxyimino)ethyl]-2-(trifluoromethyl)benzamide], for which the melting point lay in the range of 74 to 76 °C.

Take `CO/C=C(/C(=O)OC)c1ccccc1Oc1cc(Oc2ccccc2C#N)ncn1` [Compound No. C18, azoxystrobin, reference compound]: the Preventive value in series [1] (Test Example 1, 3 ppm spray) was determined as 30; in series [1] (Test Example 2, 3 ppm spray) it was 28; in series [4] (single compound 1 ppm), 65; in series [6] (concentration 6.3 ppm), 50.

For `CC#Cc1cnc(C(CNC(=O)c2ccccc2C(F)(F)F)=NOC(C)C)c(Cl)c1` [compound 18], the Preventive value in series [1] (Test Example 1, 3 ppm spray) turned out to be 88; in series [1] (Test Example 3, 3 ppm spray), 85; in series [1] (Test Example 4, 3 ppm spray), 75; in series [2] (Test Example 5) it was 8; in series [3], 0; in series [4] (single compound 3 ppm), 50. The Preventive value in series [4] (single compound 10 ppm) worked out at 65; in series [5] (setting [7]), 62; in series [5] (setting [8]) it was 98; in series [6] (concentration 500 ppm) it was 35.

As to `CC(C)ON=C(CNC(=O)c1ccccc1C(F)(F)F)c1ncc(Cl)c(S(C)(=O)=O)c1Cl` [compound 32], the Preventive value stood at 94 in series [1] (Test Example 2, 1 ppm spray); 90 in series [1] (Test Example 3, 1 ppm spray); 80 in series [1] (Test Example 4, 1 ppm spray); 6 in series [2] (Test Example 6); 0 in series [3]; 60 in series [4] (single compound 3 ppm). Further, the results for the Preventive value in series [4] (single compound 10 ppm) and in series [6] (concentration 500 ppm) were 85 and 30, respectively.

With `O=C(NCC(=NOCC(F)(F)F)c1ncc(Cl)cc1Cl)c1ccccc1C(F)(F)F` [compound 33], the Preventive value in series [1] (Test Example 2, 3 ppm spray) is 45; in series [1] (Test Example 3, 3 ppm spray), 45; in series [1] (Test Example 4, 3 ppm spray), 50; in series [2] (Test Example 6), 4; in series [3] it was 0; in series [4] (single compound 3 ppm), 20. Besides, the Preventive value worked out at 45 in series [4] (single compound 10 ppm), 20 in series [5] (setting [7]), 61 in series [5] (setting [8]) and 15 in series [6] (concentration 500 ppm).

With `CC#Cc1cnc(C(CNC(=O)c2cn(C)nc2C(F)F)=NOC(C)(C)C)c(Cl)c1` [compound 34], the Preventive value in series [1] (Test Example 2, 1 ppm spray) is listed as 63; in series [1] (Test Example 3, 1 ppm spray) it was 70; in series [1] (Test Example 4, 1 ppm spray), 50; in series [2] (Test Example 6), 5; in series [3] it was 5; in series [4] (single compound 3 ppm), 80. The Preventive value in series [4] (single compound 10 ppm) worked out at 85; in series [5] (setting [7]) it was 20; in series [5] (setting [8]), 85; in series [6] (concentration 500 ppm), 60.

For the compound `CON=C(CNC(=O)c1cccnc1Cl)c1ncc(C#CC(C)(C)C)cc1Cl` [compound 35], the Preventive value turned out to be 88 in series [1] (Test Example 1, 3 ppm spray); 90 in series [1] (Test Example 3, 3 ppm spray); 88 in series [1] (Test Example 4, 3 ppm spray); 5 in series [2] (Test Example 6); 0 in series [3]; 50 in series [4] (single compound 3 ppm). Further, the Preventive value stood at 70 in series [4] (single compound 10 ppm), 20 in series [5] (setting [7]), 61 in series [5] (setting [8]) and 30 in series [6] (concentration 500 ppm).

For the compound `CON=C(CNC(=O)c1ccccc1C(F)(F)F)c1ncc(C#CC2CC2)cc1Cl` [compound 36], the Preventive value is on record as 75 in series [1] (Test Example 1, 3 ppm spray); 80 in series [1] (Test Example 3, 3 ppm spray); 80 in series [1] (Test Example 4, 3 ppm spray); 0 in series [2] (Test Example 5); 0 in series [3]; 55 in series [4] (single compound 3 ppm). The Preventive value in series [4] (single compound 10 ppm) worked out at 70; in series [5] (setting [7]), 99; in series [5] (setting [8]) it was 100; in series [6] (concentration 500 ppm) it was 35.
